Data as given in patent EP0358766A1, “METHOD OF STERILIZING PLANT ANTHERS” (VSESOJUZNY NAUCHNO-ISSLEDOVATELSKY INST. SELSKOKHOZYAISTV. …, priority 1988, dated 1989).

Legend:
Format in all cases: in vivo
[1] = test system: Sonnenblume Sorte Peredovik; assay: Field test of pollen sterilisation, sunflower Peredovik
Description: (§1) Die gametozide Aktivität der erfindungsgemäßen Sterilisationsmittel war in Feldversuchen in verschiedenen bodenklimatischen Zonen mit Teilstücken von 10 m^2 Größe in dreibis viermaliger Wiederholung festgestellt. Jedes Sterilisationsmittel wurde mindenstens 5 Jahre lang geprüft.
(§2) Die Entwicklung der Perioden der Organogenese wird zytologisch überwacht. Die Behandlung von Pflanzen mit dem Sterilisationsmittel erfolgt am Anfang der fünften Periode der Organogenese nach Kupermann.
(§3) Zur Kontrolle der chemischen Sterilisation des Sonnenblumenpollens werden für jede Verbindung 45 behandelte Pflanzen je Wiederholung benutzt, wobei 15 Pflanzen zwecks Selbstbestäubung des Blütenkörbchens isoliert werden, 15 Pflanzen mit einem Pollengemisch, gesammelt von 20 bis 25 behandelten isolierten Körbchen, bestäubt werden, und 15 Pflanzen für freie Bestäubung gelassen werden, damit das Ansetzen von Achänen mit dem Pollen der Vaterform kontrolliert worden kann.
(§4) Man beurteilt die Pollensterilität von Pflanzen der Sonnenblume nach der Pollenfertilität und -keimfähigkeit, nach den morphologischen Besonderheiten von Spermien und nach der Fähigkeit von Achänen […] bei der Bestäubung der behandelten isolierten Pflanzen mit dem Pollen der unbehandelten väterlichen Form. Die Lebensfähigkeit der Eizelle wird nach der Samenbildung bei behandelten Pflanzen bei freier Bestäubung der väterlichen Form bestimmt.
Pflanzen der Sonnenblume Sorte Peredovik werden in der V. Periode der Organogenese (nach Kupermann) mit einer 0,2%igen wäßrigen Emulsion von 1,1,3-Tribrompropan, 1,2--Dibrompropan behandelt. Die Emulsion enthält 0,5 Masse% C12-C14-Kalziumalkylbenzolsulfonat und 0,01 Masse% Dimethylsulfoxid als Adjuvans. Der Verbrauch an Präparat beträgt 1,2 kg/ha bei 600 1 Wasserdurchsatz. Die Prüfergebnisse sind in der Tabelle 16 angegeben. Die gleichen Ergebnisse sind bei der Behandlung der Sonnenblume Sorte Peredovik in der VI. Periode der Organogenese erhalten.
Man verfährt analog den Beispielen 85 und 86. Als Sterilisationsmittel dient eine 0,1%ige wäßrige Emulsion von 1,2-Dibrom-3-chlorpropan. Der Verbrauch an Präparat beträgt […]. Die Prüfergebnisse sind in der Tabelle 16 angegeben.

[2] = test system: tetraploidem Roggen Belta; assay: Field test of gametocidal activity, tetraploid rye Belta; details: period V, 1% aqueous emulsion, 6 kg/ha in 600 l water; for Prozentsatz des Ansetzens von Samen bei freier Bestäubung: control = 100
Description: as §1, §2
(§5) Mit dem Ährenschieben verwirklicht man die Isolierung von Hauptähren und anderen Stockwerken in Pergametbeuteln. Bei Weizen und Tritikale werden Einzelisolatoren benutzt. Bei Roggen schließt man je 1 Ähre von […] verschiedenen nebeneinander befindlichen Pflanzen unter einen gemeinsamen Isolator ein. Bei Hirse wird jede Rispe getrennt isoliert. Der Sterilitätsprozentsatz (X) für Weizen, Roggen, Tritikale und Hirse wird nach der Formel [formula] ermittelt.
(§6) Die Kornzahl in nicht isolierten Ähren von Kontrollpflanzen wird bedingt für 100 % Ansetzen bei freier Bestäubung angenommen.
(§7) Um zuverlässige Angaben zu erhalten, verwendet man 20 bis 25 Isolatoren je Wiederholung für Weizen und Tritikale, 10 bis 15 Isolatoren jeder Wiederholung für Roggen und Hirse.
Pflanzen von tetraploidem Roggen Belta werden in der V.Periode der Organogenese (nach Kupermann) mit einer 1%igen wäßrigen Emulsion von 1,1,3-Tribrompropan, 1,1,3--Tribrom-4-chlorbutan, 1,1,2,3-Tetrabrompropan, 1,2,3-Tribrompropan, 1,1,3-Tribrom-3-chlorpropan bzw. 1,2-Dibrom--3-chlorpropan behandelt.
Die Emulsion enthält 0,5 Masse% C12-C14-Kalziumalk^yl-benzolsulfonat und 0,01 Masse% Dimethylsulfoxid. Der Verbrauch an Präparat beträgt 6 kg/ha bei 600 1 Wasserdurchsatz.Die Prüfergebnisse sind in der Tabelle 7 angegeben. Die gleichen Ergebnisse sind bei der Behandlung von tetraploidem Roggen Belta in der VI. Periode der Organogenese erhalten.

[3] = test system: Sonnenblume Linie BK 119; assay: Field test of pollen sterilisation, sunflower line BK 119
Description: as §1, §2, §3, §4
Pflanzen der Sonnenblume Linie BK 119 werden mit einer 0,2%igen wäßrigen Emulsion von 1,1,3-Tribrompropan bzw. 1,2-Dibrompropan behandelt. Die Emulsion enthält 0,5 Masse% C12-C14 Natriumalkylbenzolsulfonat und 0,01 Masse% Dimethylformamid als Adjuvans. Der Verbrauch an Präparat beträgt 1,2 kg/ha bei 600 1 Wasserdurchsatz. Die Prüfergebnisse sind in der Tabelle 17 angegeben. Die gleichen Ergebnisse sind bei der Behandlung von Sonnenblume Linie BK in der VI. Periode der Organogenese erhalten.
Man verführt analog den Beispielen 88-89. Als Sterilisationsmittel dient eine 0,1%ige wäßrige Emulsion von 1,2--Dibrom-3-chlorpropan. Der Verbrauch an Präparat beträgt 0,6 kg/ha bei 600 1 Wasserdurchsatz. Die Prüfergebnisse sind in der Tabelle 17 angegeben.

[4] = test system: tetraploidem Roggen Gibrid 67; assay: Field test of gametocidal activity, tetraploid rye Gibrid 67; details: period V, 1% aqueous emulsion, 10 kg/ha; for Prozentsatz des Ansetzens von Samen bei freier Bestäubung: control = 100
Description: as §1, §2, §5, §6, §7
Pflanzen von tetraploidem Roggen Gibrid 67 werden in der V.Periode der Organogenese mit einer l%igen wäßrigen Emulsion von 1,2,3-Tribrompropan, 1,2-Dibrompropan bzw. 1,2-Dibrom-3-chlorpropan behandelt. Die Emulsion enthält 0,5 Masse% C12-C14-Kalziumalkylbenzolsulfonat und 0,01 Masse% Dimethylsulfoxid. Der Verbrauch an Präparat beträgt 10 kg/ha. Die Prüfergebnisse sind in der Tabelle 10 angegeben. Die gleichen Ergebnisse sind bei der Behandlung von tetraploidem Roggen Gibrid 67 in der VI. Periode der Organogenese erhalten.

[5] = test system: diploidem Roggen Gibrid 1864/79; assay: Field test of gametocidal activity, diploid rye Gibrid 1864/79; details: period V, 1% aqueous emulsion, 6 kg/ha in 600 l water; for Prozentsatz des Ansetzens von Samen bei freier Bestäubung: control = 100
Description: as §1, §2, §5, §6, §7
Pflanzen von diploidem Roggen Gibrid 1864/79 werden in der V. Periode der Organogenese mit einer l%igen wäßrigen Emulsion von 1,2,3-Tribrompropan, 1,2-Dibrompropan, 1,1,1,3--Tetrabromheptan, 1,1,3-Tribromheptan behandelt. Die Emulsion enthält 0,5 Masse% C12-C14-Kalziumalkylbenzolsulfonat und 0,01 Masse% Äthylenglykol. Der Verbrauch an Präparat beträgt 6 kg/ha bei 600 1 Wasserdurchsatz. Die Prüfergebnisse sind in der Tabelle 12 angegeben. Die gleichen Ergebnisse sind bei der Behandlung von diploidem Roggen Gibrid 1864/79 in der VI. Periode der Organogenese erhalten.

[6] = test system: Tritikale PRAG-109; assay: Field test of gametocidal activity, triticale PRAG-109; details: period V, 1% aqueous emulsion, 6 kg/ha in 600 l water; for Prozentsatz des Ansetzens von Samen bei freier Bestäubung: control = 100
Description: as §1, §2, §5, §6, §7
Pflanzen von Tritikale PRAG-109 werden in der V.Periode der Organogenese (nach Kupermann) mit einer 1%igen wäßrigen Emulsion von 1,1,1,3-Tetrabromheptan, 1,1,3-Tribromheptan, 1,2,3-Tribrompropan bzw. 1,2-Dibrom-3-chlor- propan behandelt. Die Emulsion enthält 0,5 Masse% C12-C14--Kalziumalkylbenzolsulfonat und 0,01 Masse% Dodezylsulfat. Der Verbrauch an Präparat beträgt 6 kg/ha bei 600 1 Wasserdurchsatz. Als Kontrolle dienen Pflanzen, behandelt mit dem Verdünner ohne Sterilisationsmittel. Die Prüfergebnisse sind in der Tabelle 5 angegeben. Die gleichen Ergebnisse sind bei der Behandlung von Tritikale PRAG-109 in der VI. Periode der Organogenese erhalten.

[7] = period V, 0.2% aqueous emulsion, 1.2 kg/ha in 600 l water
[8] = 0.2% aqueous emulsion, 1.2 kg/ha in 600 l water
[9] = 0.1% aqueous emulsion, 1.0 kg/ha
[10] = 0.1% aqueous emulsion, 0.6 kg/ha in 600 l water

Compound | Ansetzen bei freier Bestäubung in % [1, 7] | Ansetzen im Isolator bei Pollengemischbestäubung in % [1, 7] | Pollenleistung in % [1, 7] | Pollensterilität in % [1, 7] | Kornzahl der Ähre bei freier Bestäubung [2] | Kornzahl der Ähre im Isolator [2] | Prozentsatz der Sterilität [2] | Prozentsatz des Ansetzens von Samen bei freier Bestäubung [2] | Kornzahl der Ähre bei freier Bestäubung [4] | Kornzahl der Ähre im Isolator [4] | Prozentsatz der Sterilität [4] | Prozentsatz des Ansetzens von Samen bei freier Bestäubung [4] | Kornzahl der Ähre bei freier Bestäubung [5] | Kornzahl der Ähre unter Isolator [5] | Prozentsatz der Sterilität [5] | Prozentsatz des Ansetzens von Samen bei freier Bestäubung [5] | Kornzahl der Ähre bei freier Bestäubung [6] | Kornzahl der Ähre im Isolator [6] | Prozentsatz der Sterilität [6] | Prozentsatz des Ansetzens von Samen bei freier Bestäubung [6] | also measured
BrCCC(Br)Br [Beispiel 1, 1,1,3-Tribrompropan] | 78,7% | 0,0% | 30,0% | 100,0% | 34,5 | 1,2 | 97,0% | 78,1% |  |  |  |  |  |  |  |  |  |  |  |  | Ansetzen bei freier Bestäubung in % [3, 8]: 80,4%; Ansetzen im Isolator bei Pollengemischbestäubung in % [3, 8]: 0,0%; Pollenstesterilität in % [3, 8]: 100,0%
BrCC(Br)CBr [Beispiel 4, 1,2,3-Tribrompropan] |  |  |  |  | 42,0 | 0,0 | 100,0% | 95,0% | 40,6 | 0,6 | 98,6% | 82,0% | 42,1 | 0,0 | 100,0% | 88,0% | 40,5 | 0,2 | 99,5% | 88,4% | 
CC(Br)CBr (centres unmarked) [Beispiel 5, 1,2-Dibrompropan] | 84,5% | 0,0% | 13,1% | 100,0% |  |  |  |  | 42,7 | 0,2 | 99,5% | 86,3% | 46,4 | 0,0 | 100,0% | 97,1% |  |  |  |  | Ansetzen bei freier Bestäubung in % [3, 8]: 88,2%; Ansetzen im Isolator bei Pollengemischbestäubung in % [3, 8]: 0,0%; Pollenstesterilität in % [3, 8]: 100,0%
ClCC(Br)CBr (centres unmarked) [Beispiel 7, 1,2-Dibrom-3-chlorpropan] |  |  |  |  | 37,4 | 0,0 | 100,0% | 84,6% | 45,2 | 0,0 | 100,0% | 91,3% |  |  |  |  | 42,6 | 1,1 | 97,3% | 93,0% | Ansetzen bei freier Bestäubung in % [1, 9]: 81,4%; Ansetzen im Isolator bei Pollengemischbestäubung in % [1, 9]: 0,0%; Pollenleistung in % [1, 9]: 0,0%; Pollensterilität in % [1, 9]: 100,0%; Ansetzen bei freier Bestäubung in % [3, 10]: 82,0%; Ansetzen im Isolator bei Pollengemischbestäubung in % [3, 10]: 0,0%; Pollenstesterilität in % [3, 10]: 100,0%
CCCCC(Br)CC(Br)(Br)Br (centres unmarked) [Beispiel 9, 1,1,1,3-Tetrabromheptan] |  |  |  |  |  |  |  |  |  |  |  |  | 49,2 | 0,0 | 100,0% | 103,0% | 61,8 | 0,0 | 100,0% | 89,6% | 
CCCCC(Br)CC(Br)Br (centres unmarked) [Beispiel 10, 1,1,3-Tribromheptan] |  |  |  |  |  |  |  |  |  |  |  |  | 52,6 | 0,0 | 100,0% | 109,8% | 59,6 | 0,0 | 100,0% | 86,4% | 
